Results from the supplement of paper PMC10307832.

Columns and labels:
Test in all cases: relative viability (nuclei count vs DMSO), 5 days (fraction); higher = more cells survive
Midostaurin + Bortezomib = compound: CO[C@@H]1[C@H](N(C)C(=O)c2ccccc2)C[C@H]2O[C@]1(C)n1c3ccccc3c3c4c(c5c6ccccc6n2c5c31)C(=O)NC4 [Midostaurin] + CC(C)C[C@H](NC(=O)[C@H](Cc1ccccc1)NC(=O)c1cnccn1)B(O)O [Bortezomib] (partner 0.002 µM)
Summary of the method: (§1)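 Nuclei were stained with Hoechst during a one-step fixation (final 0.05% Triton X-100, 1% formaldehyde, 1 ug/ml Hoechst) carried out 5 days after dosing, then counted on 4× images. The cells, lung cancer lines in 1536-well plates, had been dosed by pin tool the day after seeding with one drug alone or a fixed anchor-drug dose plus five library-drug doses (not always all listed) in √10 steps. Relative viability is the nuclei count in treated wells divided by that in vehicle wells, and each value is the median of duplicate plates.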

Midostaurin + Navitoclax = compound: CO[C@@H]1[C@H](N(C)C(=O)c2ccccc2)C[C@H]2O[C@]1(C)n1c3ccccc3c3c4c(c5c6ccccc6n2c5c31)C(=O)NC4 [Midostaurin] + CC1(C)CCC(c2ccc(Cl)cc2)=C(CN2CCN(c3ccc(C(=O)NS(=O)(=O)c4ccc(N[C@H](CCN5CCOCC5)CSc5ccccc5)c(S(=O)(=O)C(F)(F)F)c4)cc3)CC2)C1 [Navitoclax] (partner 0.5 µM)
Summary of the method: as §1

Midostaurin + Pemetrexed = compound: CO[C@@H]1[C@H](N(C)C(=O)c2ccccc2)C[C@H]2O[C@]1(C)n1c3ccccc3c3c4c(c5c6ccccc6n2c5c31)C(=O)NC4 [Midostaurin] + Nc1nc2[nH]cc(CCc3ccc(C(=O)N[C@@H](CCC(=O)O)C(=O)O)cc3)c2c(=O)[nH]1 [Pemetrexed] (partner 0.2 µM)
Summary of the method: as §1

[1] = compound: COc1cc(-c2nn([C@H]3CC[C@H](N4CCN(C(C)=O)CC4)CC3)c3ncnc(N)c23)ccc1NC(=O)c1cc2ccccc2n1C + N=C(N)NC(=N)NCCc1ccccc1 [Phenformin] (partner 250 µM)
Summary of the method: as §1

[2] = compound: COc1cc(-c2nn([C@H]3CC[C@H](N4CCN(C(C)=O)CC4)CC3)c3ncnc(N)c23)ccc1NC(=O)c1cc2ccccc2n1C + Nc1nc2[nH]cc(CCc3ccc(C(=O)N[C@@H](CCC(=O)O)C(=O)O)cc3)c2c(=O)[nH]1 [Pemetrexed] (partner 0.2 µM)
Summary of the method: as §1

Cell Line | relative viability (Midostaurin + Bortezomib; first compound 0.01 µM) | relative viability (Midostaurin + Bortezomib; first compound 0.03162 µM) | relative viability (Midostaurin + Bortezomib; first compound 0.1 µM) | relative viability (Midostaurin + Bortezomib; first compound 0.3162 µM) | relative viability (Midostaurin + Navitoclax; first compound 0.01 µM) | relative viability (Midostaurin + Navitoclax; first compound 0.03162 µM) | relative viability (Midostaurin + Navitoclax; first compound 0.1 µM) | relative viability (Midostaurin + Navitoclax; first compound 0.3162 µM) | relative viability (Midostaurin + Pemetrexed; first compound 0.01 µM) | relative viability (Midostaurin + Pemetrexed; first compound 0.03162 µM) | relative viability (Midostaurin + Pemetrexed; first compound 0.1 µM) | relative viability (Midostaurin + Pemetrexed; first compound 0.3162 µM) | relative viability ([1]; first compound 0.0128 µM) | relative viability ([1]; first compound 0.04048 µM) | relative viability ([1]; first compound 0.128 µM) | relative viability ([1]; first compound 1.28 µM) | relative viability ([2]; first compound 0.0128 µM) | relative viability ([2]; first compound 0.04048 µM) | relative viability ([2]; first compound 0.128 µM) | relative viability ([2]; first compound 1.28 µM)
HCC-78 | 0.431 | 0.45 | 0.474 | 0.328 | 0.835 | 0.638 | 0.815 | 0.341 | 0.926 | 0.857 | 0.946 | 0.865 | 0.734 | 0.789 | 0.601 | 0.37 | 0.939 | 0.879 | 0.889 | 0.91
HCC-366 | 1.02 | 1.04 | 1.02 | 1.1 | 1.07 | 1.16 | 1 | 1.06 | 0.156 | 0.15 | 0.153 | 0.156 | 0.566 | 0.664 | 0.623 | 0.658 | 0.141 | 0.24 | 0.208 | 0.232
IA-LM | 0.85 | – | 0.946 | 0.783 | 0.81 | – | 0.701 | 0.631 | – | – | – | – | – | – | – | – | – | – | – | –
LCLC-103H | 1.07 | 0.924 | 1.02 | 1.1 | – | – | – | – | 0.464 | 0.53 | 0.452 | 0.467 | 0.397 | 0.327 | 0.342 | 0.358 | 0.54 | 0.428 | 0.47 | 0.471
LK-2 | – | – | – | – | 0.831 | 0.876 | 0.843 | 0.825 | 0.265 | 0.262 | 0.299 | 0.342 | 0.423 | 0.38 | 0.408 | 0.485 | 0.298 | 0.248 | 0.27 | 0.133
NCI-H358 | – | – | – | – | – | – | – | – | 0.158 | 0.167 | 0.173 | 0.159 | 0.329 | 0.283 | 0.254 | 0.187 | 0.188 | 0.187 | 0.173 | 0.166
NCI-H522 | – | – | – | – | – | – | – | – | 1.19 | 1.14 | 0.941 | 1.24 | 0.598 | 0.625 | 0.641 | 0.541 | 1 | 0.939 | 1.14 | 0.822
NCI-H650 | 0.635 | 0.783 | 0.734 | 0.625 | – | – | – | – | 0.906 | 0.892 | 0.99 | 0.686 | 0.519 | 0.593 | 0.459 | 0.462 | 1.09 | 1.05 | 1.02 | 0.897
NCI-H661 | 0.742 | 0.933 | 0.667 | 0.72 | – | – | – | – | 0.915 | 0.82 | 0.902 | 0.904 | 0.271 | 0.273 | 0.256 | 0.261 | 0.939 | 0.991 | 0.93 | 0.968
NCI-H727 | 0.906 | 0.81 | 0.771 | 0.795 | 0.41 | 0.368 | 0.361 | 0.4 | – | – | – | – | 0.559 | – | 0.495 | 0.619 | – | – | – | –
NCI-H1299 | 1.03 | 0.987 | 0.95 | 1.01 | 1.07 | 0.989 | 1.01 | 1.01 | – | – | – | – | – | – | – | – | – | – | – | –
NCI-H1395 | – | – | – | – | 1.11 | 1.09 | 1.17 | 1.25 | 0.791 | 1.09 | 0.748 | 0.846 | 0.419 | 0.461 | 0.431 | 0.395 | 0.819 | 0.81 | 0.763 | 0.59
NCI-H1563 | 0.888 | 0.937 | 0.761 | 0.888 | – | – | – | – | 0.681 | 0.748 | 0.749 | 0.809 | 0.608 | 0.635 | 0.662 | 0.617 | 0.755 | 0.778 | 0.853 | 0.582
NCI-H1623 | – | – | – | – | – | – | – | – | – | – | – | – | 0.622 | 0.508 | 0.603 | 0.53 | – | – | – | –
NCI-H1648 | – | – | – | – | – | – | – | – | 0.671 | – | – | 0.823 | – | – | – | – | 0.92 | 0.738 | 0.857 | 0.646
NCI-H1703 | 0.427 | 0.256 | 0.373 | 0.153 | 1.21 | 0.974 | 0.75 | 0.312 | – | – | – | – | – | – | – | – | – | – | – | –
NCI-H1793 | – | – | – | – | 0.417 | 0.533 | 0.513 | 0.493 | 0.926 | 1.01 | 0.782 | 0.673 | 0.388 | 0.252 | 0.317 | 0.289 | 1.04 | 0.771 | 0.871 | 0.617
NCI-H1944 | – | – | – | – | 1.03 | 1.18 | 1.11 | 1.15 | 0.61 | 0.579 | 0.566 | 0.642 | 0.238 | 0.198 | 0.184 | 0.165 | 0.65 | 0.589 | 0.571 | 0.6
NCI-H2170 | – | – | – | – | 0.609 | 0.673 | 0.549 | 0.569 | 0.297 | 0.268 | 0.265 | 0.266 | 0.437 | 0.412 | 0.405 | 0.377 | 0.267 | 0.275 | 0.296 | 0.253
NCI-H2342 | – | – | – | – | – | – | – | – | 0.785 | 0.72 | 0.794 | 0.73 | 0.529 | 0.584 | 0.637 | 0.628 | 0.762 | 0.821 | 0.781 | 0.771
SK-MES-1 | – | – | – | – | 1.17 | 1.13 | 1.18 | 1.15 | 0.856 | 0.826 | 0.885 | 0.854 | 0.785 | 0.708 | 0.587 | 0.631 | 1.08 | 0.994 | 0.904 | 0.755
SW 900 | – | – | – | – | – | – | – | – | 0.468 | 0.477 | 0.488 | 0.478 | 0.639 | 0.66 | 0.494 | 0.448 | 0.487 | 0.489 | 0.469 | 0.373
